Experimental findings from EP4786462A1, “PYRIDONE COMPOUNDS AND PREPARATION METHOD THEREFOR, AND APPLICATION” (Shenzhen Salubris Pharmaceuticals Co., Ltd., priority 2023, dated 2025) are described below.

A short description of data set [1]: Pharmacokinetic experiment in rats (iv and PO administration). It counts as in vivo. Particulars: male, rat, plasma, SD rats, 5 mg/kg, read-out: AUC0-24h. An excerpt:
Polyethylene glycol 400 (lot number R22040588, Shanghai Shaoyuan Reagent Co., Ltd.), DMSO (lot number 20200319, Guangdong Guanghua Sci-Tech Co., Ltd.), Sodium Chloride Physiological Solution (lot number 2011110727, Chenxin Pharmaceutical Co., Ltd.). LC-MS instrument (Thermo Fisher Ultimate 3000 UPLC, TSQ QUANTUM ULTRA triple quadrupole mass spectrometer, AB SCIEX 5500+ QTARP).
SD rats: Male, 180-250 g, purchased from Guangdong Vital River Laboratory Animal Technology Co., Ltd.
The test compound powder was accurately weighed and completely dissolved in DMSO. PEG-400 was added, vortexed and sonicated to mix, then sodium chloride physiological solution was added, vortexed and sonicated to mix to form a 0.5 mg/mL solution (DMSO:PEG-400:NS = 5:60:35, V/V/V). For oral gavage administration, the dose was 10 mL/kg; for intravenous administration, the dose was 2 mL/kg.
After intravenous or oral gavage administration to rats, venous blood (200 µL) was collected at 5 min (not collected for oral gavage administration), 15 min, 30 min, 1 h, 2 h, 5 h, 7 h, and 24 h into EDTA-K2-anticoagulated EP tubes. The samples were centrifuged at 10000 rpm for 2 min, and the plasma was collected and stored at -80 °C until analysis.
A certain amount of the test compound was accurately weighed and dissolved in DMSO to 2 mg/mL as a stock solution. An appropriate volume of the compound stock solution was accurately transferred and diluted with acetonitrile to prepare a series of standard solutions. 4 µL of each standard solution was accurately transferred, and 36 µL of blank plasma was added, vortexed to mix, to prepare plasma samples equivalent to plasma concentrations of 1, 3, 5, 10, 30, 100, 300, 1000, 3000 ng/mL. Each concentration was analyzed in duplicate to establish a standard curve. 30 µL of plasma was taken, and 200 µL of an acetonitrile solution containing internal standard propranolol (5 ng/mL) was added. After vortex mixing, the samples were centrifuged at 4000 rpm for 10 min, and the supernatant was taken for LC-MS analysis. The LC-MS detection conditions were as follows: Column: YMC-Triart C18, 50×2.1 mm, S-3µm, 12 nm.
Mobile phase A: water (0.1% formic acid), mobile phase B: acetonitrile, flow rate: 0.5 mL/min, gradient elution as shown in Table 2 below: Table 2
After detecting plasma concentrations by LC-MS, pharmacokinetic parameters in rats after administration were calculated using a non-compartmental model with WinNonlin 6.1 software. Table 3: Pharmacokinetic Parameters of the Compound of the Present Disclosure in Rats (iv and PO Administration)

The target in the next data set is T1, hERG channel (Homo sapiens, UniProt Q12809).
T1 construct: expressed in transfected cells
Put plainly: Effect on hERG current in hERG-HEK293 cells (automated patch-clamp). Particulars: 30 µM compound, peak tail current vs 0.3% DMSO. The format is cell-based.

T1 sequence (Q12809 whole entry): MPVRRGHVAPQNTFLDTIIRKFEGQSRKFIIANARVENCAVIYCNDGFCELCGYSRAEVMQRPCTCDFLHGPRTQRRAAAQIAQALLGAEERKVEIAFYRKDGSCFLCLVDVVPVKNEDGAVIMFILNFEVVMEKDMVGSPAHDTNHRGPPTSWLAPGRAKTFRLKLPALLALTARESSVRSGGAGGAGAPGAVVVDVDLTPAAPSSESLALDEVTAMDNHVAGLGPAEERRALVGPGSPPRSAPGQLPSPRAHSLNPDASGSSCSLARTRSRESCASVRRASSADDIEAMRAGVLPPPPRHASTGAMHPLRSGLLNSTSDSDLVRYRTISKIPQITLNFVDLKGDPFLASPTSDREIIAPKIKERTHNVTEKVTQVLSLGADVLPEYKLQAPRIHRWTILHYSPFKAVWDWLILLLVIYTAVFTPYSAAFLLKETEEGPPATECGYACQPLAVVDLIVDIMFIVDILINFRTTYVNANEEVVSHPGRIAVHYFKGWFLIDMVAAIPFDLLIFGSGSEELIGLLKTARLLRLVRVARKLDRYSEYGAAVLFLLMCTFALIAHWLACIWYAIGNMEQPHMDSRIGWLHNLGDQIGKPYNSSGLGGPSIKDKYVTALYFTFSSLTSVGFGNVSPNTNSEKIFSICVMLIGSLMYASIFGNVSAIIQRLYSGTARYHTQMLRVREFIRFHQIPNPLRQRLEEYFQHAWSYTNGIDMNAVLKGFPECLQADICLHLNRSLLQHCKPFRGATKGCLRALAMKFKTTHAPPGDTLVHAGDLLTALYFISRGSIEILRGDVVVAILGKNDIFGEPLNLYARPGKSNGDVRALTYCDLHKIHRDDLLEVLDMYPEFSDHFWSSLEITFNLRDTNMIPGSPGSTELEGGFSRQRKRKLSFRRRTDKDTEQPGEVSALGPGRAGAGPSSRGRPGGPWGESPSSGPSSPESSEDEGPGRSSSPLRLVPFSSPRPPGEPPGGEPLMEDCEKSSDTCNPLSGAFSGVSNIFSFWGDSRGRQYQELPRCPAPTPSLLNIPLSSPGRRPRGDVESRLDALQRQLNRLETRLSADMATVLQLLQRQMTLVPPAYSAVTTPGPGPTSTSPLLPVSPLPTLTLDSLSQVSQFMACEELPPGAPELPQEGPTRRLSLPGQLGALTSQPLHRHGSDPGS

Turning to `O=c1cccnn1-c1cnc(N[C@H]2CC[C@H](Nc3nc4ccccn4n3)C2)c(F)c1` [Example C47, 2-(6-(((1S,3S)-3-([1,2,4]triazolo[1,5-a]pyridin-2-ylamino)cyclopentyl)amino)-5-fluoropyridin-3-yl)pyridazin-3(2H)-one], in data set [1], the AUC(0-t) stood at 53000 ng·h/mL. On hERG channel, the “hERG Inhibition (%)” value was below 50%.
